Source: patent US7858635B2 (priority 2005, dated 2010)
Like-named read-outs stand apart in the source and are kept apart here.

Columns and labels:
M1 muscarinic receptor = molecular target: T1, M1 muscarinic receptor (Homo sapiens, UniProt P11229); test: Functional mobilization of intracellular calcium (FLIPR, Fluo-3), M1-CHO cells; format: cell-based; conditions: for Emax: 100% efficacy is the maximum response obtained with the Carbachol control, read-out: M1 Efficacy
T1 construct: expressed in transfected cells; host or cells: CHO cells (M1-CHO, under zeocin and G418 selection)
T1 sequence (P11229 1-460): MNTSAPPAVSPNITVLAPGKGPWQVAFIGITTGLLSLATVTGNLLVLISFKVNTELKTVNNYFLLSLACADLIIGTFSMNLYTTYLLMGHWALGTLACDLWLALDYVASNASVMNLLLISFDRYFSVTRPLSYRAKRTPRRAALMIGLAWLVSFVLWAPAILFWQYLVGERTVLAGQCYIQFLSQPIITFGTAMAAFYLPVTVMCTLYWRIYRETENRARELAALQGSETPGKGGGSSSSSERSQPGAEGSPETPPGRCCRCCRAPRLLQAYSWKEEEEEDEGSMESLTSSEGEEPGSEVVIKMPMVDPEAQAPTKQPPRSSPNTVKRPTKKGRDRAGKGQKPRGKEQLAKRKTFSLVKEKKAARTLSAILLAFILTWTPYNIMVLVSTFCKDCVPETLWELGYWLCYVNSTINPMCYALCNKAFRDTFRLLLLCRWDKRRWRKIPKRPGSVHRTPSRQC
Summary of the method: (§1)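 Intracellular calcium was tracked by fluorescence (488/540 nm) over 60 sec after compound addition to dye-loaded CHO cells expressing the receptor. Inhibitory activity used a 15 min pre-incubation before carbachol at the subtype EC80.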

M4 muscarinic receptor = molecular target: T2, M4 muscarinic receptor (Homo sapiens, UniProt P08173); test: Functional mobilization of intracellular calcium (FLIPR, Fluo-3), M4-CHO cells; format: cell-based; conditions: for Emax: read-out: M4 Efficacy
T2 construct: expressed in transfected cells; host or cells: CHO cells (M4-CHO, under puromycin, zeocin and blasticidin selection)
T2 sequence (P08173 1-479): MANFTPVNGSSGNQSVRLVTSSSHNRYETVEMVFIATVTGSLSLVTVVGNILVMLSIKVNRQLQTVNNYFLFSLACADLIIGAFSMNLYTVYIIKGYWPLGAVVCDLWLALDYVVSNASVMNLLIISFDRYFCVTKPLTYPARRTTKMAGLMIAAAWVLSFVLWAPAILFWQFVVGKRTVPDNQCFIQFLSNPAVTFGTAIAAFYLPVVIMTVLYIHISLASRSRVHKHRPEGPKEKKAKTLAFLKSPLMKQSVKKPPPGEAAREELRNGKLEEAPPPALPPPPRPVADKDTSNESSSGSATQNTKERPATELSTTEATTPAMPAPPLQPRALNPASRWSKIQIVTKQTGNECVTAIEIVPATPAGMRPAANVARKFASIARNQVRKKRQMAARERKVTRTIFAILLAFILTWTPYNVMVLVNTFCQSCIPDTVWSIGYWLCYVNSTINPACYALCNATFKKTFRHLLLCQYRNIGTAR
Summary of the method: as §1

[1] = compound nos. 1-454, M1-CHO cells, calcium mobilization
[2] = compound nos. 1-454, 100% efficacy is the maximum response obtained with the Carbachol control
[3] = compound nos. 1-454, M4-CHO cells, calcium mobilization
[4] = compound nos. 455-509, 100% efficacy is the maximum response obtained with the Carbachol control

| Structure (SMILES) | Emax (M1 muscarinic receptor; compound nos. 1-454) | M1 Activity (M1 muscarinic receptor; [1]) | Emax (M4 muscarinic receptor; [2]) | M4 Activity (M4 muscarinic receptor; [3]) | Emax (M1 muscarinic receptor; compound nos. 455-509) | M1 Activity (M1 muscarinic receptor; compounds 455-509) | Emax (M4 muscarinic receptor; [4]) | M4 Activity (M4 muscarinic receptor; compounds 455-509) | M1 Activity (M1 muscarinic receptor; compound nos. 1-454) | M4 Activity (M4 muscarinic receptor; compound nos. 1-454) | M4 Efficacy (M4 muscarinic receptor; [2]) |
| --- | --- | --- | --- | --- | --- | --- | --- | --- | --- | --- | --- |
| CCOC(=O)N1C2CCC1CC(N1CCC3(CC1)CN(C(=O)N(C)C)c1ccc(F)cc13)C2 (stereo not drawn) [compound 362] | 65 to 85% | ++ (activity was measured to be between 0.7 μM and 3.0 μM) | < 55% | + (activity was measured to be greater than or equal to 4.0 μM) | – | – | – | – | – | – | – |
| Fc1ccc2c(c1)C1(CCN(C3CCCCC3)CC1)CN2 [compound 325] | 65 to 85% | + (activity was measured to be greater than or equal to 3.0 μM) | < 55% | + (activity was measured to be greater than or equal to 4.0 μM) | – | – | – | – | – | – | – |
| COCCOC(=O)N1CCC(CN2CCC3(CC2)CN(C(C)=O)c2ccc(F)cc23)CC1 [compound 26] | 65 to 85% | +++ (activity was measured to be less than or equal to 0.7 μM) | < 55% | ++ (activity was measured to be between 0.1 μM and 4.0 μM) | – | – | – | – | – | – | – |
| CCOC(=O)N1C2CCC1CC(N1CCC3(CC1)C(=O)Nc1ccccc13)C2 (stereo not drawn) [compound 199] | 65 to 85% | ++ (activity was measured to be between 0.7 μM and 3.0 μM) | < 55% | + (activity was measured to be greater than or equal to 4.0 μM) | – | – | – | – | – | – | – |
| CN(C)C(=O)N1CCC2(CCN(C3CC4CCC(C3)N4c3cnccn3)CC2)c2ccccc21 (stereo not drawn) [compound 486] | – | – | – | – | > 100% | +++ (activity was measured to be less than or equal to 2.0 μM) | 25 to 100% | ++ (activity was measured to be between 2.0 μM and 5.0 μM) | – | – | – |
| CCNC(=O)N1CC2(CCN(C3CC4CCC(C3)N4C(=O)OCC)CC2)c2cc(F)ccc21 (stereo not drawn) [compound 255] | < 65% | + (activity was measured to be greater than or equal to 3.0 μM) | < 55% | + (activity was measured to be greater than or equal to 4.0 μM) | – | – | – | – | – | – | – |
| CC(=O)CN1CC2(CCN(C[C@@H]3C[C@H]4C=C[C@H]3C4)CC2)c2cc(F)ccc21 [compound 385] | 65 to 85% | – | < 55% | – | – | – | – | – | ++ (activity was measured to be between 0.7 μM and 3.0 μM) | + (activity was measured to be greater than or equal to 4.0 μM) | – |
| CCC1CCC(N2CCC3(CC2)C[C@H](NC(C)=O)c2ccccc23)CC1 (stereo partly drawn) [compound 367] | < 65% | + (activity was measured to be greater than or equal to 3.0 μM) | < 55% | + (activity was measured to be greater than or equal to 4.0 μM) | – | – | – | – | – | – | – |
| Fc1ccc2c(c1)C1(CCN([C@@H]3C[C@@H]4CC[C@H]3C4)CC1)CO2 [compound 175] | 65 to 85% | +++ (activity was measured to be less than or equal to 0.7 μM) | 55 to 70% | ++ (activity was measured to be between 0.1 μM and 4.0 μM) | – | – | – | – | – | – | – |
| Cc1nsc(N2CCC(N3CCC4(CC3)CN(C(=O)N(C)C)c3ccccc34)CC2)n1 [compound 458] | – | – | – | – | > 100% | +++ (activity was measured to be less than or equal to 2.0 μM) | > 100% | ++ (activity was measured to be between 2.0 μM and 5.0 μM) | – | – | – |
| C#CCCOC(=O)N1C2CCC1CC(N1CCC3(CC1)CN(C(=O)N(C)C)c1ccc(F)cc13)C2 (stereo not drawn) [compound 230] | < 65% | + (activity was measured to be greater than or equal to 3.0 μM) | > 70% | ++ (activity was measured to be between 0.1 μM and 4.0 μM) | – | – | – | – | – | – | – |
| CCOC(=O)N1CCC(N2CCC3(CC2)CN(C(=O)C(C)(C)C)c2ccc(F)cc23)CC1 [compound 282] | < 65% | +++ (activity was measured to be less than or equal to 0.7 μM) | 55 to 70% | ++ (activity was measured to be between 0.1 μM and 4.0 μM) | – | – | – | – | – | – | – |
| CC(=O)NC1CC2(CCN(C[C@H]3C[C@H]4C=C[C@H]3C4)CC2)c2ccccc21 (stereo partly drawn) [compound 392] | – | – | – | – | – | – | – | – | +++ (activity was measured to be less than or equal to 0.7 μM) | + (activity was measured to be greater than or equal to 4.0 μM) | + (efficacy was calculated to be 55% or less) |
| O=C(C1CCC1)N1C2CCC1CC(N1CCC3(CC1)COc1ccc(F)cc13)C2 (stereo not drawn) [compound 134] | > 85% | +++ (activity was measured to be less than or equal to 0.7 μM) | < 55% | ++ (activity was measured to be between 0.1 μM and 4.0 μM) | – | – | – | – | – | – | – |
| O=C(OCC1CCCO1)N1C2CCC1CC(N1CCC3(CC1)COc1ccc(F)cc13)C2 (stereo not drawn) [compound 363] | < 65% | ++ (activity was measured to be between 0.7 μM and 3.0 μM) | < 55% | + (activity was measured to be greater than or equal to 4.0 μM) | – | – | – | – | – | – | – |
| CCOC(=O)N1C2CCC1CC(N1CCC3(CC1)CN(C(C)=O)c1c(F)cccc13)C2 (stereo not drawn) [compound 322] | < 65% | ++ (activity was measured to be between 0.7 μM and 3.0 μM) | > 70% | +++ (activity was measured to be less than or equal to 0.1 μM) | – | – | – | – | – | – | – |
| CCOC(=O)N1CCC(N2CCC3(CC2)CN(CC(=O)CC)c2ccc(F)cc23)CC1 [compound 303] | > 85% | ++ (activity was measured to be between 0.7 μM and 3.0 μM) | < 55% | + (activity was measured to be greater than or equal to 4.0 μM) | – | – | – | – | – | – | – |
| COCCOC(=O)N1CC2(CCN(C3CC4CCC(C3)N4C(=O)OCCOC)CC2)c2cc(F)ccc21 (stereo not drawn) [compound 117] | 65 to 85% | +++ (activity was measured to be less than or equal to 0.7 μM) | < 55% | ++ (activity was measured to be between 0.1 μM and 4.0 μM) | – | – | – | – | – | – | – |
| CCC1CCC(N2CCC3(CC2)CN(C(C)=O)c2ccc(F)cc23)CC1 (stereo not drawn) [compound 27] | 65 to 85% | +++ (activity was measured to be less than or equal to 0.7 μM) | 55 to 70% | +++ (activity was measured to be less than or equal to 0.1 μM) | – | – | – | – | – | – | – |
| CCOC(=O)N1C2CCC1CC(N1CCC3(CC1)CN(C(=O)c1ccno1)c1ccc(F)cc13)C2 (stereo not drawn) [compound 88] | 65 to 85% | +++ (activity was measured to be less than or equal to 0.7 μM) | < 55% | ++ (activity was measured to be between 0.1 μM and 4.0 μM) | – | – | – | – | – | – | – |
| CCOC(=O)N1CCC(N2CCC3(CC2)CN(C(C)=O)c2ccc(Cl)cc23)CC1 [compound 141] | > 85% | +++ (activity was measured to be less than or equal to 0.7 μM) | > 70% | ++ (activity was measured to be between 0.1 μM and 4.0 μM) | – | – | – | – | – | – | – |
| c1ccc2c(c1)CCC21CCN(CC2CCOCC2)CC1 [compound 18] | < 65% | +++ (activity was measured to be less than or equal to 0.7 μM) | > 70% | ++ (activity was measured to be between 0.1 μM and 4.0 μM) | – | – | – | – | – | – | – |
| Fc1ccc2c(c1)C1(CCN(CC3CCC4CCC3C4)CC1)CN2 (stereo not drawn) [compound 13] | 65 to 85% | ++ (activity was measured to be between 0.7 μM and 3.0 μM) | < 55% | + (activity was measured to be greater than or equal to 4.0 μM) | – | – | – | – | – | – | – |
| COc1ccccc1N1CCC(N2CCC3(CC2)CN(C(=O)N(C)C)c2ccc(F)cc23)CC1 [compound 440] | 65 to 85% | – | 55 to 70% | – | – | – | – | – | ++ (activity was measured to be between 0.7 μM and 3.0 μM) | ++ (activity was measured to be between 0.1 μM and 4.0 μM) | – |
| Clc1ccc2c(c1)C1(CCN(C3CC4CCC3C4)CC1)CN2 (stereo not drawn) [compound 224] | 65 to 85% | + (activity was measured to be greater than or equal to 3.0 μM) | < 55% | + (activity was measured to be greater than or equal to 4.0 μM) | – | – | – | – | – | – | – |
